Reference: US9783513B2, “STAT3 inhibitors and their anticancer use” (Ohio State Innovation Foundation, priority 2012, dated 2017)
Read-outs that look alike come from different tables or passages of the source.

Key:
IL-6 secretion = assay: IL-6 secretion; type: cell-based, human; conditions: FIG. 57(C)
AKT and ERK 1/2 = assay: Western blot, AKT and ERK1/2 phosphorylation; type: cell-based, human
Experimental: RH30 cells were treated with DMSO, LY-5 (0.25-1 μM) and LY-3 (0.5-2.5 μM) prepared as a 20 mM stock solution in sterile DMSO at 60% to 80% confluence in the presence of 10% FBS for 24 hours. The sarcoma cell line EW8 was treated with DMSO and LY-5 (0.5-2.5 μM) prepared as a 20 mM stock solution in sterile DMSO at 60% to 80% confluence in the presence of 10% FBS for 24 hours. MCF-7 cells and DAOY cells were treated with DMSO, 25-50 ng/ml of IL-6, LY-5 (0.25-1 μM) or LY-3 (0.5-2.5 μM) prepared as a 20 mM stock solution in sterile DMSO, protein expressions of P-STAT3 (Tyr705) and STAT3 were tested. DAOY cells were treated with DMSO, 50 ng/ml of IFN-γ, LY-5 (1-5 μM) prepared as a 20 mM stock solution in sterile DMSO, protein expressions of P-STAT3 (Tyr705) and STAT3 were tested. […]
The cells were harvested and lysed in cold radioimmunoprecipitation assay (RIPA) lysis buffer containing […] and phosphatase inhibitor cocktail, and were subjected to SDS-PAGE. […] Membranes were analyzed using Enhanced Chemiluminescence Plus reagents and scanned with the Storm Scanner (Amersham Pharmacia Biotech, Inc., Piscataway, N.J.).
MCF-7 breast cancer cells were seeded in 10 cm plates and allowed to adhere overnight. […] The cells were harvested after 30 minutes and analyzed by Western blot.

HUVEC = HUVEC tube formation assay; type: cell-based, human; conditions: 300 nM
Experimental: The Endothelial Tube Formation Assay (CBA200, Cell Biolabs Inc., San Diego, Calif., USA) was used in addition to the HUVEC proliferation assay. The ECM gel was thawed at 4° C. and mixed to homogeneity using cooled pipette tips. Cell culture plates (96-well) were bottom-coated with a thin layer of ECM gel (50 μl/well), which was left to polymerize at 37° C. for 60 min. HUVEC (2-3×10^4 cells) were stimulated with VEGF in 150 μl medium and added to each well on the solidified ECM gel. Culture medium was added to each well in the presence or absence of LY5. The plates were incubated at 37° C. for 12-18 hours and the endothelial tubes were quantified using a fluorescent microscope after staining with Calcein AM. Three microscope fields were selected at random and photographed. Tube forming ability was quantified by counting the total number of cell clusters and branches under a 4× objective and […] per well. The results are expressed as mean fold change of branching compared with the control groups. Each experiment was performed at least three times. The 3D in vitro angiogenesis assay was performed essentially as described by manufactures instructions (promo cell). […] The spheroids were photographed after 24 hours and sprout formation assessed as described.

[1] = tested on: human sarcoma cell line RD2; assay: Cell viability (MTT) assay, RD2; type: cell-based
Experimental: Human sarcoma cell lines (RD2, RH30, U2OS) were seeded in 96-well plates at a density of 3,000 cells per well. The cells were incubated at 37° C. for a period of 24 hours. Different concentrations of LY-5 (0.1-10 μM), LY-3 (0.1-20 μM), and LLL12 (0.1-10 μM) prepared as a 20 mM stock solution in sterile DMSO were added in triplicate to the plates in the presence of 10% FBS. 3-(4,5-Dimethylthiazolyl)-2, 5-diphenyltetrazoliumbromide (MTT) was added to evaluate cell viability. The absorbance was read at 595 nm. IC50 values were determined using SigmaPlot 9.0 Software (Systat Software, Inc., San Jose, Calif.).
Alternatively, cells were seeded in 96-well plates in triplicate at a density of 3,000 cells per well and given 24 hours to adhere. Cells were then treated with varying concentrations of the inhibitors in the presence of 10% FBS. The cells were incubated for 72 hours at 37° C. 25 μl of MTT dye (Sigma, #M5655) was added to each sample and incubated for 3.5 hours. After this, 100 μl of N,N-dimethylformamide (Sigma, #D4551) solubilization solution was added to each well. The absorbance at 450 nm was read the following day. Half-Maximal inhibitory concentrations (IC50) were determined using Sigma Plot 9.0 software (Systat Software Inc.).
Table 7 below lists specific compounds as well as experimentally determined STAT3 activity in a cell-based assay. The STAT3 activity was determined using the cell viability assays with human sarcoma cell lines (RD2, RH30, U2OS) as described above. The compound reference numbers (“Ref. No.”) in Table 7 correspond to the compound numbers used in Table 3.

NS(=O)(=O)c1cccc2c1C(=O)C=C(Nc1cccnc1)C2=O [LY-5, 5,8-dioxo-6-(pyridin-3-ylamino)-5,8-dihydronaphthalene-1-sulfonamide]
IL-6 secretion (IL-6 secretion): can decrease | selectivity of phosphorylation inhibition, STAT3 over AKT and ERK 1/2 (AKT and ERK 1/2; MCF-7, OSM 50 ng/mL): selectivity inhibit phosphorylation of STAT3 over AKT and ERK 1/2 | phosphorylation of the kinase ERK1/2 (AKT and ERK 1/2; sarcoma cells, FIG. 1-2): not found to inhibit | VEGF induced HUVEC tube formation (HUVEC): inhibits | IC50 ([1]; Table 7, read-out: IC50 RD2): 1390 nM | IC50 ([1]; Table 8, read-out: IC50 values vs. cell lines, RD2): 1390 nM
